According to ChEMBL document CHEMBL3853292, “Aspewentins D-H, 20-Nor-isopimarane Derivatives from the Deep Sea Sediment-Derived Fungus Aspergillus wentii SD-310” (J Nat Prod, 2016):
≈ marks a conversion by molar mass, not a printed value.

Columns and labels:
Vibrio harveyi = test: Antimicrobial activity against Vibrio harveyi QDIO-7 measured after 24 hrs by XTT assay; type: functional; conditions: QDIO-7, 24 h
Micrococcus luteus = test: Antimicrobial activity against Micrococcus luteus QDIO-3 measured after 24 hrs by XTT assay; type: functional; conditions: QDIO-3, 24 h
Vibrio anguillarum = test: Antimicrobial activity against Vibrio anguillarum QDIO-6 measured after 24 hrs by XTT assay; type: functional; conditions: QDIO-6, 24 h
Pseudomonas aeruginosa = test: Antimicrobial activity against Pseudomonas aeruginosa QDIO-4 measured after 24 hrs by XTT assay; type: functional; conditions: QDIO-4, 24 h
Alternaria brassicae = test: Antimicrobial activity against Alternaria brassicae QDAU-1 measured after 24 hrs by XTT assay; type: functional; conditions: QDAU-1, 24 h
Aeromonas hydrophila = test: Antimicrobial activity against Aeromonas hydrophila QDIO-1 measured after 24 hrs by XTT assay; type: functional; conditions: QDIO-1, 24 h
[1] = Toxicity in brine shrimp larvae assessed as lethality measured after 24 hrs by macroscopic analysis; conditions: artemia salina; read-out: LD50
Vibrio parahaemolyticus = test: Antimicrobial activity against Vibrio parahaemolyticus QDIO-8 measured after 24 hrs by XTT assay; type: functional; conditions: QDIO-8, 24 h
[2] = tested on: Colletotrichum gloeosporioides; test: Antimicrobial activity against Colletotrichum gloeosporioides QDAU-2 by XTT assay; type: functional
Gaeumannomyces graminis = test: Antimicrobial activity against Gaeumannomyces graminis QDAU-3 measured after 24 hrs; type: functional; conditions: QDAU-3, 24 h
Escherichia coli = test: Antimicrobial activity against Escherichia coli EMBLC-1 measured after 24 hrs by XTT assay; type: functional; conditions: EMBLC-1, 24 h
Staphylococcus aureus = test: Antimicrobial activity against Staphylococcus aureus EMBLC-2 measured after 24 hrs by XTT assay; type: functional; conditions: EMBLC-2, 24 h
Edwardsiella tarda = test: Antimicrobial activity against Edwardsiella tarda QDIO-2 measured after 24 hrs by XTT assay; type: functional; conditions: QDIO-2, 24 h
Fusarium graminearum = test: Antimicrobial activity against Fusarium graminearum QDAU-4 measured after 24 hrs by XTT assay; type: functional; conditions: QDAU-4, 24 h

Compound | MIC (Vibrio harveyi) [µg/mL] | MIC (Micrococcus luteus) [µg/mL] | MIC (Vibrio anguillarum) [µg/mL] | MIC (Pseudomonas aeruginosa) [µg/mL] | MIC (Alternaria brassicae) [µg/mL] | MIC (Aeromonas hydrophila) [µg/mL] | LC50 at 24 h [1] [µg/mL] | MIC (Vibrio parahaemolyticus) [µg/mL] | MIC [2] [µg/mL] | MIC (Gaeumannomyces graminis) [µg/mL] | MIC (Escherichia coli) [µg/mL] | MIC (Staphylococcus aureus) [µg/mL] | MIC (Edwardsiella tarda) [µg/mL] | MIC (Fusarium graminearum) [µg/mL]
C=C[C@@]1(C)CCc2c3c(cc(O)c2[C@@H]1O)C(C)(C)[C@H](O)CC3 | > 32 | 16 (≈ 52.9 µM) | 32 (≈ 106 µM) | 4 (≈ 13.2 µM) | 32 (≈ 106 µM) | > 32 | > 10 | 32 (≈ 106 µM) | 32 (≈ 106 µM) | 32 (≈ 106 µM) | 32 (≈ 106 µM) | > 32 | > 32 | 4 (≈ 13.2 µM)
C=C[C@]1(C)C=C2C(=O)C=C3C(C)(C)CC[C@@H](O)[C@]3(O)[C@H]2CC1 | > 32 | 16 (≈ 52.9 µM) | > 32 | > 32 | 32 (≈ 106 µM) | > 32 | > 10 | 32 (≈ 106 µM) | > 32 | > 32 | > 32 | > 32 | > 32 | > 32
C=C[C@@]1(C)CCc2c(c(O)cc3c2CCCC3(C)C)C1 | > 32 | > 32 | > 32 | > 32 | > 32 | > 32 | > 10 | 4 (≈ 14.8 µM) | > 32 | 8 (≈ 29.6 µM) | > 32 | 8 (≈ 29.6 µM) | 16 (≈ 59.2 µM) | > 32
C=C[C@]1(C)C=C2C(=O)C=C3C(C)(C)CCC[C@]3(O)[C@@]2(O)CC1 | > 32 | 4 (≈ 13.2 µM) | > 32 | 32 (≈ 106 µM) | 8 (≈ 26.5 µM) | > 32 | > 10 | > 32 | > 32 | 32 (≈ 106 µM) | 32 (≈ 106 µM) | > 32 | > 32 | 2 (≈ 6.61 µM)
C=C[C@]1(C)C=C2C(=O)C=C3C(C)(C)[C@H](O)CC[C@]3(O)[C@H]2CC1 | 8 (≈ 26.5 µM) | > 32 | 32 (≈ 106 µM) | > 32 | > 32 | 16 (≈ 52.9 µM) | > 10 | 32 (≈ 106 µM) | > 32 | > 32 | > 32 | 32 (≈ 106 µM) | 4 (≈ 13.2 µM) | > 32
C=C[C@@]1(C)CCc2c3c(cc(O)c2[C@H]1O)C(C)(C)[C@H](O)CC3 | 4 (≈ 13.2 µM) | > 32 | > 32 | > 32 | > 32 | > 32 | > 10 | > 32 | 32 (≈ 106 µM) | 32 (≈ 106 µM) | 16 (≈ 52.9 µM) | 32 (≈ 106 µM) | > 32 | > 32
C[C@@H]1[C@H](O)[C@@H](C)/C=C/C=C/C=C/C=C/C=C/C=C/C=C/[C@H](O[C@@H]2O[C@H](C)[C@@H](O)[C@H](N)[C@@H]2O)C[C@@H]2O[C@](O)(C[C@@H](O)C[C@@H](O)[C@H](O)CC[C@@H](O)C[C@@H](O)CC(=O)O[C@H]1C)C[C@H](O)[C@H]2C(=O)O [AMPHOTERICIN B] | – | – | – | – | 32 (≈ 34.6 µM) | – | – | – | 32 (≈ 34.6 µM) | 64 (≈ 69.3 µM) | – | – | – | 8 (≈ 8.66 µM)
O=C(N[C@H](CO)[C@H](O)c1ccc([N+](=O)[O-])cc1)C(Cl)Cl [CHLORAMPHENICOL] | 4 (≈ 12.4 µM) | 8 (≈ 24.8 µM) | 0.5 (≈ 1.55 µM) | 4 (≈ 12.4 µM) | – | 4 (≈ 12.4 µM) | – | 1 (≈ 3.09 µM) | – | – | 4 (≈ 12.4 µM) | 0.5 (≈ 1.55 µM) | 8 (≈ 24.8 µM) | –
